Nine compounds from patent EP2020405A1, “Substituted aryl or heteroarylpiperidine derivatives as melanocortin-4 receptor modulators” (Santhera Pharmaceuticals (Schweiz) AG, priority 2007, dated 2009) can be followed below.

SMILES strings stand for the structures.

Assay [1] concerns the target T1, hMC-4R (Homo sapiens, UniProt P32245).
T1 construct: expressed in transfected cells; host or cells: HEK293
Briefly: Functional assay (membrane based cAMP fluorescence polarization, agonistic activity). In kind it is biochemical. Details: concentration or dose not given beside the values. Particulars: cAMP produced compared to stimulation with NDP-alpha-MSH. On the procedure:
Agonistic activity of human melanocortin receptors is determined in a homogeneous membrane based assay.
Membrane preparations from HEK293 cells expressing the human melanocortin receptors are added. After a short preincubation period, an appropriate amount of ATP, GTP and the cAMP antibody is added and the plate is further incubated before the fluorescence labeled cAMP conjugate is dispensed. The plate is incubated for 2 h at 4°C before it is read on a fluorescence polarization microplate reader. The amount of cAMP produced as a response to a test compound is compared to the production of cAMP resulting from stimulation with NDP-alpha-MSH.

Assay [2] concerns the target T1, hMC-4R. Nature of the assay: Membrane binding assay (fluorescence polarization, competition with fluorescence labeled NDP-alpha-MSH). The settings on record: HEK293 cell membrane preparations expressing human melanocortin receptors; 5 h at room temperature.

T1 sequence (P32245 whole entry): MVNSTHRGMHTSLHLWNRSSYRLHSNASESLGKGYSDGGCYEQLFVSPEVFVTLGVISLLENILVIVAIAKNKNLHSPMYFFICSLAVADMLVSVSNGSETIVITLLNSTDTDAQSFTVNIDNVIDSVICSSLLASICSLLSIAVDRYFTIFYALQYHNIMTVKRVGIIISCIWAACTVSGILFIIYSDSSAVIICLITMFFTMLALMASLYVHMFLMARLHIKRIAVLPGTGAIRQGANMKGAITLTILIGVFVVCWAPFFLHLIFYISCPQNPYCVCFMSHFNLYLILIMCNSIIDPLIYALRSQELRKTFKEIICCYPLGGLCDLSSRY

As to `CCC(COc1cc(Cl)ccc1C1CCN(C(=O)[C@@H](Cc2ccc(Cl)cc2Cl)N2CCCC2)CC1)N1CCCC1` (stereo partly drawn) [Example 3], the “% activation functional assay” value at hMC-4R [1] turned out to be 0%. Besides, the IC50 on hMC-4R [2] came out at 2.1 nM.

As for `CCC(CN1CCCC1)Oc1cc(Cl)ccc1C1CCN(C(=O)[C@@H](Cc2ccc(Cl)cc2Cl)N2CCCC2)CC1` (stereo partly drawn) [Example 4], the “% activation functional assay” value on hMC-4R [1] turned out to be 0%. Also, at hMC-4R [2], the IC50 came to 2.4 nM.

On to `O=C(C(Cc1ccc(Cl)cc1Cl)N1CCCCC1)N1CCC(c2ccc(Cl)cc2OCCN2CCCC2)CC1` (stereo not drawn) [Example 10], for which the “% activation functional assay” value at hMC-4R [1] was determined as 14%. The same compound gave an IC50 at hMC-4R [2] of 62 nM.

For `O=C(C(Cc1ccc(Cl)cc1Cl)N1CCCCC1)N1CCC(c2cc(F)ccc2CCN2CCCC2)CC1` (stereo not drawn) [Example 15], the “% activation functional assay” value at hMC-4R [1] stood at 0%. Besides, the IC50 at hMC-4R [2] came to 180 nM.

`CCC(Cc1cc(Cl)ccc1C1CCN(C(=O)C(Cc2ccc(Cl)cc2Cl)n2cncn2)CC1)CN1CCCC1` (stereo not drawn) [Example 22]: on hMC-4R [1], the “% activation functional assay” value was found to be 0%. At hMC-4R [2], this compound returned an IC50 of 17 nM.

Regarding `O=C(C(Cc1ccc(Cl)cc1Cl)n1cncn1)N1CCC(c2ccc(Cl)cc2OCCN2CCCC2)CC1` (stereo not drawn) [Example 23], on hMC-4R [1], the “% activation functional assay” value is listed as 0%. The same compound had an IC50 at hMC-4R [2] of 7.7 nM.

In the case of `O=C(C(Cc1ccc(Cl)cc1Cl)N1CCOCC1)N1CCC(c2ccc(Cl)cc2OCCN2CCCC2)CC1` (stereo not drawn) [Example 25], the “% activation functional assay” value at hMC-4R [1] is reported as 0%. The IC50 at hMC-4R [2] is 100 nM.

As for `O=C(C(Cc1ccc(Cl)cc1Cl)Nc1cccnc1)N1CCC(c2ccc(Cl)cc2OCCN2CCCC2)CC1` (stereo not drawn) [Example 27], the “% activation functional assay” value at hMC-4R [1] was 0%. Further, on hMC-4R [2], the IC50 was determined as 5.9 nM.

Take `Cc1ccn(C(Cc2ccc(Cl)cc2Cl)C(=O)N2CCC(c3ccc(Cl)cc3OCCN3CCCC3)CC2)n1` (stereo not drawn) [Example 34]: at hMC-4R [1], the “% activation functional assay” value is 0%. At hMC-4R [2], this compound yielded an IC50 of 220 nM.
